Values of other authors, collected in patent US5977116A, “Piperazine, piperidine and tetrahydropyridine derivatives” (Merck Sharp & Dohme Ltd., priority 1995, dated 1999).

Test system: human 5-HT1Dα and 5-HT1Dβ receptor subtypes
Settings: cf. WO-A-91/17174, Table 1

- discrimination between human 5-HT1Dα and 5-HT1Dβ receptor subtypes: barely discriminates
Compound: CNS(=O)(=O)Cc1ccc2[nH]cc(CCN(C)C)c2c1 [sumatriptan]
